One assay concerns mAb 2F5. Description: In-solution competition ELISA. The following applies: competition with biotinylated peptide bio-57 (0.1 μg/ml) for mAb 2F5 (0.2 μg/ml), peptide 1:3 dilutions from 0.04 mM, 2 h at 37°C, duplicate, at least two experiments; for IC50: read-out: IC50 of competitor peptide, mAb 2F5. It counts as binding, human. The procedure: (§1) The in-solution competition ELISA was performed according to Stanfield and colleagues. In brief, 96-well plates were coated o/n with 200 ng/well neutravidin (Pierce) in PBS at 4°C and blocked with 4% NFDM for 1 h at RT. Different competing MPER peptide analogs (serially diluted 1:3 in 1% NFDM at a starting concentration of 0.04 mM) were mixed with a constant concentration of biotinylated peptide bio-0705 (0.1 μg/ml) or bio-57 (0.1 μg/ml) and the corresponding human mAb 4E10 (0.5 μg/ml) or mAb 2F5 (0.2 μg/ml), respectively. The antibody/peptide mixture was incubated for 2 h at 37°C, subsequently transferred to the neutravidin plates and incubated at 37°C for 20 min. Bound antibodies were detected with HRP labeled goat anti human F(ab)2 conjugate (Pierce). After 1 h at RT, wells were developed, stopped and read as described above. The concentration of competitor peptide corresponding to a half-maximal signal (IC50) was determined by nonlinear fit interpolation of the resulting binding curve (GraphPad PRISM 5.0 software). Each peptide competitor was tested in duplicate in at least two separate experiments.
Background: ELISA stands for enzyme-linked immunosorbent assay.

Another assay concerns mAb 4E10. Kind of assay: In-solution competition ELISA. In kind it is binding, human. The following applies: for IC50: read-out: IC50 of competitor peptide, mAb 4E10. The protocol:
as §1

Where [1] appears, read: competition with biotinylated peptide bio-0705 (0.1 μg/ml) for mAb 4E10 (0.5 μg/ml), peptide 1:3 dilutions from 0.04 mM, 2 h at 37°C, duplicate, at least two experiments.

No end group written: not given here. Bounds are passed on as bounds.

One may read the IC50 as the concentration that inhibits the measured activity by half. As for “ELDKWASLWNWFDITNWLWYIKIEELKSKIKRIENEIKRIKK [compound 09128]”, the IC50 in the assay with mAb 2F5 amounted to 76.3 nM; in the assay on mAb 4E10 (setting [1]), 0.9 nM. Further, in the assay on mAb 4E10 (in-solution competition assay), the “enhancement in IC50 compared to control peptide 94.1, mAb 4E10” value is reported as “more than 80 fold”.
On to “ELDKWASLWNWFNITNWLWYIKIEELKSKIKRIENEIKRIKK [C22-pT, reference compound]”, for which the IC50 was more than 10000 nM in the assay with mAb 2F5 and 3270 nM with mAb 4E10 (setting [1]).
“WTLNIFWIWSYLDWSNKKKK-NH2 [compound 08023, scrambled negative control peptide based on 09122]”: the “IC50 of competitor peptide, mAb 2F5” value with mAb 2F5 is reported as “did not interact”. Besides, the “IC50 of competitor peptide, mAb 4E10” value in the assay on mAb 4E10 (setting [1]) was “did not interact”.

These data come from PMC4418728, “A High Throughput Protein Microarray Approach to Classify HIV Monoclonal Antibodies and Variant Antigens” (PLoS ONE, 2015).
